Results: US20260345556A1, “Pharmaceutical Composition for Preventing or Treating Nephritis” (Daewoong Pharmaceutical Co., Ltd., priority 2022, published 2026)

Columns and labels:
CD4+ T cells = test: CD4+ T cell proliferation inhibition (CFSE staining, flow cytometry); assay type: cell-based; conditions: human blood CD4+ T cells; 1.25, 2.5, 5, 10 μM; 5 days; FIG. 2
Method: (§1) PBMCs were transferred to a new tube using a pipette. After RBC lysis buffer was added to PBMC, centrifugation was performed, and then CD8 or CD4 cells were isolated using CD8 MicroBeads (Miltenyl Biotec, 130-045-201) or CD4 MicroBeads (Miltenyl Biotec, 130-096-533). A CFSE (-(and-6)-Carboxyfluorescein Diacetate, Succinimidyl Ester) labeling solution (Invitrogen, C1157) was added to the isolated cells. The compounds of Examples were dissolved in DMSO to make a 5 mM stock, then treated to make 1.25 μM, 2.5 μM, 5 μM, and 10 μM, respectively. After 5 days, the degree of cell proliferation was measured by the amount of CFSE staining using flow cytometry, and the results are shown in FIG. 2.

CD8+ T cells = test: CD8+ T cell proliferation inhibition (CFSE staining, flow cytometry); assay type: cell-based; conditions: human blood CD8+ T cells; 1.25, 2.5, 5, 10 μM; 5 days; FIG. 2
Method: as §1

gdT cells = test: Inhibition of IL-17 factor in gdT cells (IL-17A ELISA); assay type: cell-based; conditions: gdT cells from normal human blood; 10 μM; IL-2 and IL-15 10 ng/ml each; FIG. 3
Method: After collecting 10 ml of normal human blood, ficoll density gradient medium (Cytiva, 17144003) and PBS, the immune cell layer (PBMC) was isolated using a centrifuge. PBMCs were transferred to a new tube using a pipette. After RBC lysis buffer was added to PBMC, centrifugation was performed, and then 10 ng/ml of human IL-2 and IL-15 protein (cytokine) were respectively added to the cells, and cultured (for the purpose of inducing IL-17A). The compounds of Examples were dissolved in DMSO to make a 5 mM stock, and then 10 μM of the example compound was treated. On the 3rd and 5th days of cytokine treatment, 10 ng/ml of human IL-2 and IL-15 proteins (cytokine) were added, centrifuged, and the supernatant was collected. The IL-17A expression level was confirmed with the collected supernatant using an IL-17A ELISA kit (DY371, R&D Systems), and the results are shown in FIG. 3.

C57BL/6 male mice [1] = test: Mouse renal failure treatment model by Adenine diet; assay type: in vivo; conditions: oral once a day 5, 10, 20 mg/kg for 2 weeks, starting 2 weeks after start of adenine
Method: (§2) A feed containing adenine was administered to C57BL/6 male mice as described in Ali et al. J Pharmacol Toxicol Methods 2013; Jia et al. BMC Nephrol 2013; Tanaka et al. Am J Pathol 2009. Starting 2 weeks after the start of adenine administration, 5 mg/kg, 10 mg/kg and 20 mg/kg of the compounds of Examples were orally administered daily for 2 weeks (FIG. 4). Physiological saline was administered to the negative control group (vehicle). Blood BUN and Creatinine, which are the primary indicators of kidney function, were measured.
Further, the degree of fibrosis of the mouse kidney tissue was measured through immunochemical staining, and the results are shown in FIG. 5.

[2] = test system: Rat kidney cell line (NRK-49F cell line); test: Fibrotic factor inhibition in rat kidney cell line (western blot); assay type: cell-based; conditions: 5 ng/ml TGFb, 2.5, 5, 10 μM, 48 hours, FIG. 6
[3] = test system: human primary kidney cells; test: Fibrotic factor inhibition in human primary kidney cells (western blot); assay type: cell-based; conditions: 5 ng/ml TGFb, 1.25 µM, 2.5 μM, 5 μM, 48 hours, FIG. 7
Method: Digestion buffer was added to human kidney tissue (preserved after biopsy), cut into small pieces with scissors, and then disintegrated through a shaker incubation for 90 minutes. After filtering the disintegrated tissue through a 70 μm filter cell strainer, the remaining tissue was filtered once again using a 40 μm filter cell strainer. The filtered disintegrated tissue solution was centrifuged, and the cells were isolated and cultured. The cultured cells were treated with 5 ng/ml TGFb and […], 2.5 μM, and 5 μM of the compounds of Examples, respectively, and then 48 hours later, cells were harvested, and western blot was performed to quantitatively analyze fibrotic factor proteins.

C57BL/6 male mice [4] = test: Mouse renal failure prevention model by Adenine diet; assay type: in vivo; conditions: oral once a day 5, 10, 20 mg/kg for 4 weeks, simultaneously with adenine
Method: as §2, with “2009. Simultaneously with” for “2009. Starting 2 weeks after”, “10 mg/kg,” for “10 mg/kg”, “for 4” for “for 2”, “(FIG. 8).” for “(FIG. 4).”
Additionally, the degree of fibrosis of the mouse kidney tissue was measured through immunochemical staining.

C57BL/6 male mice [5] = test: NTN (Nephrotoxic Serum-Induced Nephritis) model; assay type: in vivo, mouse; conditions: oral 5, 10, 20 mg/kg for 7 days from disease induction
Method: After sensitizing C57BL/6 male mice with 200 μg sheep IgG and Freund's […] adjuvant, 10 μg of sheep nephrotoxic serum was injected after five days to induce disease. From the day the disease was induced, the compounds of Examples were orally administered at doses of 5 mg/kg, 10 mg/kg, and 20 mg/kg for 7 days, respectively. Saline was administered to the negative control group (vehicle). On day 8, renal function (uPCR, BUN) was assessed.
The NTN model is a glomerulonephritis model that causes inflammation in the glomeruli, which induces proteinuria.

O[C@H]1CCCN[C@@H]1CCCn1cnc2c(Cl)c(Cl)ccc21 [Example]
CD4+ T cell proliferation (CD4+ T cells): cell proliferation is inhibited | CD8+ T cell proliferation (CD8+ T cells): cell proliferation is inhibited | IL-17 cytokine inhibition (gdT cells): inhibited | deterioration of renal function (blood BUN and Creatinine) (C57BL/6 male mice [1]; FIG. 4): significantly inhibited in a dose-dependent manner | accumulation of collagen in renal tissue (immunochemical staining) (C57BL/6 male mice [1]; FIG. 5): significantly inhibited in a dose-dependent manner | fibrotic factor collagen [2]: significantly inhibited | fibrotic factor fibronectin [2]: significantly inhibited | fibrotic factor αSMA [2]: significantly inhibited | fibrotic factor collagen [3]: significantly inhibited | fibrotic factor fibronectin [3]: significantly inhibited | fibrotic factor αSMA [3]: significantly inhibited | deterioration of renal function (blood BUN and Creatinine) (C57BL/6 male mice [4]; FIG. 8): significantly inhibited in a dose-dependent manner | preventive effect on kidney damage caused by Adenine diet (C57BL/6 male mice [4]; FIG. 8): exhibited preventive effect | collagen accumulation in renal tissue (immunochemical staining) (C57BL/6 male mice [4]; FIG. 9): significantly inhibited in a dose-dependent manner | effect on damaged glomerular tissue (C57BL/6 male mice [5]; FIG. 10 and FIG. 11 (immunochemical staining)): effective in damaged glomerular tissue | proteinuria (uPCR) (C57BL/6 male mice [5]; assessed day 8, PRSi 5 mg/kg on the left side of FIG. 10): significantly reducing proteinuria
